Among the data in US8377945B2, “Small molecule inhibitors of spleen tyrosine kinase (SYK)” (Rigel Pharmaceuticals Inc., priority 2009, dated 2013) are IC50 values, retold here.

For one experiment, the target named is T1, Syk kinase (Homo sapiens, UniProt P43405).
T1 construct: purchased Millipore 14-314
As to the kind of experiment: ELISA-based Syk kinase assay (phosphorylation of HS1 peptide substrate by isolated Syk kinase). The experiment is classed as biochemical. The conditions noted are these: IC50 of Syk kinase inhibition; 2 μM ATP, 2 μM peptide substrate. The protocol:
Compounds were tested for the ability to inhibit Syk kinase catalyzed phosphorylation of a peptide substrate in an assay with isolated Syk kinase.
An assay was carried out in a Costar white 96 well plate (Fisher Scientific, Cat No. 07-200-591) coated overnight with 0.01 mg/ml Neutravidin (Pierce, 100 μl/well) at 4° C. Neutravidin pre-coated 96 well plates were blocked with 2% BSA in PBST buffer for at least 1 hour before starting the assay at room temperature. Serially diluted compound stock solution containing a subject compound was prepared separately in DMSO solution starting from 300 μM and 2 μl of this diluted compound (3% DMSO final concentration) was added directly to neutravidin coated assay plate containing 55.5 μl/well of kinase reaction buffer composed of 20 mM HEPES, pH 7.4, 5 mM MgCl2, 2 mM MnCl2, 1 mM DTT, 0.01% Tween 20 pre-mixed with ATP and kinase substrate (HS1 peptide). Reaction was initiated by adding of 2.5 μl/well Syk kinase (Millipore, Cat No. 14-314) resulting in a final reaction volume of 60 μl and then the reaction was allowed to continue for 30 minutes at room temperature. Final enzyme reaction conditions were 20 mM HEPES, pH 7.4, 5 mM MgCl2, 2 mM MnCl2, 1 mM DTT, 0.01% Tween 20, 0.25 ng Syk, 2 μM ATP, 2 μM peptide substrate (Biotin-EQEDEPEGDYEEVLE-CONH2, SynPep Corporation). After completing the reaction, assay plate was washed three times with PBST and incubated for 1 hour at room temperature with 100 μl/well of phosphopeptide detection antibody solution prepared by mixing 1-1000 diluted mouse anti-pTyr monoclonal antibody (Cell Signal Technology, Cat No. 9411) and 1-1000 diluted goat HRP-conjugated anti-mouse IgG (Jackson Immunoresearch, Cat. No. 115-035-003). Before developing the plate with supersignal ELISA pico chemiluminescent substrate (Pierce), plate was washed three times again with PBST and were read on a SpectraMax M5 microplate reader (Moleculear Devices).
For orientation: An ELISA detects its analyte on a solid surface through an enzyme-linked reagent.

Experiment [1] deals with Human mast cells (CHMC cells). As to the kind of experiment: Tryptase release assay (mast cell degranulation induced by anti-IgG FcγR cross-linking). Format: cell-based. The conditions noted are these: IC50 of tryptase release from human mast cells after anti-IgG stimulation, read-out: LD Tryptase. The protocol:
Compounds were assayed for inhibition of mast cell activation induced by FcγR cross-linking by measuring the activity of tryptase released upon degranulation as follows:
Human mast cells were cultured and differentiated from […] progenitor cell as described in U.S. Patent Publication No. 2005-234049, incorporated herein by reference. For example, 65 μl of various concentrations of the compound to be assayed were prepared in MT (137 mM NaCl, 2.7 mM KCl, 1.8 mM CaCl2, 1.0 mM MgCl2, 5.6 mM Glucose, 20 mM Hepes (pH 7.4), 0.1% Bovine Serum Albumin, (Sigma A4503)) containing 2% MeOH and 1% DMSO, or control buffer were added to duplicate 96-well V-bottom plates. Pelleted and resuspended (in warm MT) CHMC cells (65 μl) were added to each 96-well plate, mixed and incubated for 1 hour at 37° C. 25 μl of 6× anti-IgG Rabbit anti-human IgG, Affinity purified (Bethyl Laboratories Cat No. A80-105A3) final concentration 1 μg/ml, was added to the test wells. MT (25 μl) was added to control wells. After a 60-minute incubation at 37° C., cells and cell debris were pelleted by centrifugation at 1000 rpm for 10 min and tryptase and leukotriene C4 levels were measured.
To measure tryptase levels, 25 μl of supernatant from each well was transferred to a fresh 96-well black bottom plate, to which 100 μl of fresh tryptase substrate solution [(Z-Ala-Lys-Arg-AMC2TFA; Enzyme Systems Products, #AMC-246)] 1:2000 in tryptase assay buffer [0.1 M Hepes (pH 7.5), 10% w/v Glycerol, 10 μM Heparin (Sigma H-4898) 0.01% NaN3] was added. After 30 minute incubation at room temperature, the optical density of the plates is measured at 355 nm/460 nm on a spectrophotometric plate reader. Table 2 provides the IC50 values.

The structures appear in SMILES notation.

With `COc1cccc(Nc2c(-c3cc(OC)c(OC)c(OC)c3)[nH]c3c(C#N)cnn23)c1` [Compound 14], the IC50 on Syk kinase was 0.51 to 2.99 µM; in experiment [1], less than 10 µM.
Taken in the same sequence, the figures for `COc1ccc(Nc2c(-c3cccc(NS(C)(=O)=O)c3)[nH]c3c(C#N)cnn23)cc1OC` [Compound 114] were 0.51 to 2.99 µM and less than 10 µM.
In the same order, the values of `COc1cc(Nc2c(-c3ccc(OC)c(OC4CCCC4)c3)[nH]c3c(C#N)cnn23)ccc1F` [Compound 119] are 0.51 to 2.99 µM and less than 10 µM.
As to `CC(=O)Nc1ccc(-c2[nH]c3c(C#N)cnn3c2Nc2cccc(C(F)(F)F)c2)cc1` [Compound 3], the IC50 at Syk kinase was in the range of 0.51 to 2.99 µM; in experiment [1], 11 to 100 µM.
Take `COc1cc(-c2[nH]c3c(C#N)cnn3c2Nc2cc(F)c(OC)c(F)c2)cc(OC)c1OC` [Compound 143]: the figures for the IC50 (on Syk kinase; in experiment [1]) were less than 0.5 µM and less than 10 µM, respectively.
Regarding `COc1cc(-c2[nH]c3c(C#N)cnn3c2Nc2ccc(F)c(C)c2)cc(OC)c1OC` [Compound 120], the IC50 was 0.51 to 2.99 µM on Syk kinase and less than 10 µM in experiment [1].
As to `COc1ccc(Nc2c(-c3ccc(Oc4ccccc4)cc3)[nH]c3c(C#N)cnn23)cc1OC` [Compound 8], the IC50 on Syk kinase was 3 to 25 µM; in experiment [1], less than 10 µM.
Take `COc1cc(-c2[nH]c3c(C#N)cnn3c2Nc2ccc(CNC(=O)c3ccncc3)cc2)cc(OC)c1OC` [Compound 150]: the IC50 against Syk kinase was in the range of 0.51 to 2.99 µM; in experiment [1], 11 to 100 µM.
Taken in the same sequence, the figures for `COc1cc(-c2[nH]c3c(C#N)cnn3c2Nc2ccc(F)c(OC3CCCC3)c2)cc(OC)c1OC` [Compound 145] were 0.51 to 2.99 µM and less than 10 µM.
In the same order, the values of `COc1cc(-c2[nH]c3c(C#N)cnn3c2Nc2cccc(CNC(=O)c3ccccn3)c2)cc(OC)c1OC` [Compound 147] are less than 0.5 µM and less than 10 µM.
In the same order, the values of `COc1cc(-c2[nH]c3c(C#N)cnn3c2Nc2ccc(N3CCOCC3)cc2)cc(OC)c1OC` [Compound 25] are 0.51 to 2.99 µM and less than 10 µM.
With `COc1ccc2[nH]cc(-c3[nH]c4c(C#N)cnn4c3Nc3ccc(OC)c(OC)c3)c2c1` [Compound 4], the IC50 against Syk kinase is 0.51 to 2.99 µM; in experiment [1], less than 10 µM.
In the case of `COc1cc(-c2[nH]c3c(C#N)cnn3c2Nc2ccc(SC)c(F)c2)cc(OC)c1OC` [Compound 157], the IC50 against Syk kinase is less than 0.5 µM; in experiment [1] it was 11 to 100 µM.
Taken in the same sequence, the figures for `COc1ccc(Nc2c(-c3ccc4c(c3)OCCO4)[nH]c3c(C#N)cnn23)cc1OC` [Compound 38] were 0.51 to 2.99 µM and more than 5000 µM.
In the case of `COc1cc(Nc2c(-c3ccc(C(N)=O)cc3)[nH]c3c(C#N)cnn23)ccc1F` [Compound 117], the IC50 was 0.51 to 2.99 µM at Syk kinase and more than 5000 µM in experiment [1].
Take `COc1ccc(Nc2c(-c3cc(OC)c(OC)c(OC)c3)[nH]c3c(C#N)cnn23)cc1OC` [Compound 28]: the figures for the IC50 (on Syk kinase; in experiment [1]) were less than 0.5 µM and less than 10 µM, respectively.
Taken in the same sequence, the figures for `CSc1ccc(-c2[nH]c3c(C#N)cnn3c2Nc2cccc(NC(C)=O)c2)cc1` [Compound 33] were 0.51 to 2.99 µM and less than 10 µM.
On to `COc1cc(-c2[nH]c3c(C#N)cnn3c2Nc2ccc(CNC(=O)c3ccc(C(F)(F)F)nc3)cc2)cc(OC)c1OC` [Compound 156], for which the IC50 was 0.51 to 2.99 µM against Syk kinase and less than 10 µM in experiment [1].
For `COc1ccc(Nc2c(-c3ccc(OCC(=O)NC4CC4)c(OC)c3)[nH]c3c(C#N)cnn23)cc1OC` [Compound 140], the IC50 against Syk kinase was less than 0.5 µM; in experiment [1], less than 10 µM.
Taken in the same sequence, the figures for `COc1cc(Nc2c(-c3ccc(OC)c(OCC(N)=O)c3)[nH]c3c(C#N)cnn23)ccc1F` [Compound 138] were 0.51 to 2.99 µM and less than 10 µM.
With `COc1cccc(Nc2c(-c3ccc4cc[nH]c4c3)[nH]c3c(C#N)cnn23)c1` [Compound 44], the IC50 was 3 to 25 µM against Syk kinase and less than 10 µM in experiment [1].
Taken in the same sequence, the figures for `COc1cc(-c2[nH]c3c(C#N)cnn3c2Nc2ccc(CNC(=O)c3cnccc3C(F)(F)F)cc2)cc(OC)c1OC` [Compound 155] were 0.51 to 2.99 µM and less than 10 µM.
With `COc1ccc(Nc2c(-c3cc(O)c(OC)c(OC)c3)[nH]c3c(C#N)cnn23)cc1OC` [Compound 100], the IC50 is less than 0.5 µM against Syk kinase and less than 10 µM in experiment [1].
With `N#Cc1cnn2c(Nc3ccc(Br)cc3)c(-c3ccc4c(c3)NC(=O)CO4)[nH]c12` [Compound 45], the IC50 fell in the range of 0.51 to 2.99 µM against Syk kinase and 101 to 5000 µM in experiment [1].
Turning to `COc1ccc(Nc2c(-c3ccc(NC(C)=O)cc3)[nH]c3c(C#N)cnn23)cc1OC` [Compound 2], the IC50 against Syk kinase was 0.51 to 2.99 µM; in experiment [1] it was less than 10 µM.
For `N#Cc1cnn2c(Nc3ccc(Br)cc3)c(-c3ccc(C(N)=O)cc3)[nH]c12` [Compound 98], the IC50 was in the range of 0.51 to 2.99 µM against Syk kinase and 101 to 5000 µM in experiment [1].
In the same order, the values of `COc1ccc(Nc2c(-c3ccc4[nH]ccc4c3)[nH]c3c(C#N)cnn23)cc1OC` [Compound 5] are 0.51 to 2.99 µM and less than 10 µM.
Taken in the same sequence, the figures for `COC(=O)COc1ccc(-c2[nH]c3c(C#N)cnn3c2Nc2ccc3c(c2)OCCO3)cc1OC` [Compound 85] were less than 0.5 µM and less than 10 µM.
Regarding `COc1cc(-c2[nH]c3c(C#N)cnn3c2Nc2ccc(OC(C)C)c(Cl)c2)cc(OC)c1OC` [Compound 141], the figures for the IC50 (against Syk kinase; in experiment [1]) were 0.51 to 2.99 µM and less than 10 µM, respectively.
Take `COc1cc(Nc2c(-c3ccc(OCC(N)=O)c(OC)c3)[nH]c3c(C#N)cnn23)ccc1F` [Compound 139]: the IC50 at Syk kinase was less than 0.5 µM; in experiment [1] it was less than 10 µM.
Regarding `COc1cc(-c2[nH]c3c(C#N)cnn3c2Nc2ccc(F)c(OC(C)C)c2)cc(OC)c1OC` [Compound 133], the IC50 against Syk kinase is 0.51 to 2.99 µM; in experiment [1], less than 10 µM.
In the same order, the values of `COc1ccc(Nc2c(-c3cccc(O)c3)[nH]c3c(C#N)cnn23)cc1OC` [Compound 112] are 0.51 to 2.99 µM and less than 10 µM.
Taken in the same sequence, the figures for `COc1ccc(Nc2c(-c3ccc(N4CCOCC4)cc3)[nH]c3c(C#N)cnn23)cc1OC` [Compound 104] were 0.51 to 2.99 µM and less than 10 µM.
With `COc1ccc(Nc2c(-c3ccc(OC)c(OC4CCCC4)c3)[nH]c3c(C#N)cnn23)cc1OC` [Compound 106], the IC50 against Syk kinase is less than 0.5 µM; in experiment [1] it was less than 10 µM.
Taken in the same sequence, the figures for `COc1cc(-c2[nH]c3c(C#N)cnn3c2Nc2cccc(CNC(=O)c3cccnc3)c2)cc(OC)c1OC` [Compound 146] were 0.51 to 2.99 µM and 11 to 100 µM.
Taken in the same sequence, the figures for `COc1cc(-c2[nH]c3c(C#N)cnn3c2Nc2cccc(CNC(=O)c3ccncc3)c2)cc(OC)c1OC` [Compound 148] were less than 0.5 µM and 101 to 5000 µM.
